Experiments:
RPL13A locus = experiment: gRNA cutting efficiency by ICE analysis, RPL13A locus; assay type: cell-based; conditions: RNP with Cas9 nucleofected into human PSCs, gDNA at 72 hours
Experimental: (§1) CRISPR-Cas9 gene editing was performed to insert transgenes into the intended STEL sites in the following experiments. Three guide RNAs (gRNAs) were designed computationally to target the 3′ UTR of GAPDH proximal to the stop codon. Five gRNAs were designed computationally to target the 3′ UTR of RPL13A proximal to the stop codon. These gRNAs were designed to have a low number of off-target sites and have a high predicted activity against the target sequence.
(§2) To test gRNA cutting efficiency, gRNAs complexed with Cas9 nuclease were delivered as ribonucleoproteins (RNPs) separately into human PSCs via nucleofection. At 72 hours following nucleofection, gDNA was extracted from each pool of nucleofected cells. A region around the GAPDH or RPL13A locus intended cut site was PCR-amplified using the following primers: […]
(§3) Overall cutting efficiency of each gRNA was determined by Inference of CRISPR Edits (ICE) Analysis by comparing a Sanger sequencing chromatogram from unedited cells to the Sanger sequencing chromatogram from each gRNA condition.

GAPDH locus = experiment: gRNA cutting efficiency by ICE analysis, GAPDH locus; assay type: cell-based; conditions: RNP with Cas9 nucleofected into human PSCs, gDNA at 72 hours
Experimental: as §1, §2, §3

[1] = system: GAPDH-targeted RapaCasp9 PSC line; experiment: Flow cytometric analysis of cleaved Caspase 3 after rapamycin treatment; assay type: cell-based, human; conditions: 5nM or 10 nM rapamycin, 24 hours of treatment
Experimental: A GAPDH-targeted RapaCasp9 PSC line was treated with either 5nM or 10 nM of rapamycin for 1, 2, 4 or 24 hours, and cells were harvested for flow cytometric analysis after each timepoint (FIG. 17). The primary antibody used was an anti-human/mouse cleaved caspase-3 conjugated to an Alexa Fluor® 488 […]. The primary antibody detects human and mouse Caspase 3 cleaved at Asp175. Caspase 3 is an executioner caspase that functions downstream of the initiator caspase, Caspase 9, in the apoptotic cascade. […] Upon induction of apoptosis through either cell stress or activation, it undergoes proteolysis into cleaved Caspase 3 subunits. […] There was negligible detection of cleaved Caspase 3 for edited PSCs not treated with rapamycin.

## 5′-GGAAGGGCAGGCAACGCAUG-3′ (SEQ ID NO:8) (listed as RNA, chemistry not given here) [RPL13A gRNA, guide RNA targeting the 3′ UTR of RPL13A proximal to the stop codon]
RPL13A locus
  relative cutting efficiency: highest relative cutting efficiencies

## 5′-CUUCCUCUUGUGCUCUUGCU-3′ (SEQ ID NO:7) (listed as RNA, chemistry not given here) [GAPDH gRNA, guide RNA targeting the 3′ UTR of GAPDH proximal to the stop codon]
GAPDH locus
  relative cutting efficiency: highest relative cutting efficiencies

## CO[C@H]1C[C@@H]2CC[C@@H](C)[C@@](O)(O2)C(=O)C(=O)N2CCCC[C@H]2C(=O)O[C@H]([C@H](C)C[C@@H]2CC[C@@H](O)[C@H](OC)C2)CC(=O)[C@H](C)/C=C(\C)[C@@H](O)[C@@H](OC)C(=O)[C@H](C)C[C@H](C)/C=C/C=C/C=C/1C [rapamycin]
[1]
  cells staining for cleaved Caspase 3: > 99%

Reference: patent US20240060047A1, “CELLS WITH SUSTAINED TRANSGENE EXPRESSION” (BlueRock Therapeutics LP, priority 2019, published 2024)
